The values below come from patent publication US11571423B2, “Small molecule modulators of human sting” (Curadev Pharma Limited, priority 2017, dated 2023).

pEC50: −log10 of the molar value.

Sequence of hSTING(R232) (Q86WV6 whole entry H232R): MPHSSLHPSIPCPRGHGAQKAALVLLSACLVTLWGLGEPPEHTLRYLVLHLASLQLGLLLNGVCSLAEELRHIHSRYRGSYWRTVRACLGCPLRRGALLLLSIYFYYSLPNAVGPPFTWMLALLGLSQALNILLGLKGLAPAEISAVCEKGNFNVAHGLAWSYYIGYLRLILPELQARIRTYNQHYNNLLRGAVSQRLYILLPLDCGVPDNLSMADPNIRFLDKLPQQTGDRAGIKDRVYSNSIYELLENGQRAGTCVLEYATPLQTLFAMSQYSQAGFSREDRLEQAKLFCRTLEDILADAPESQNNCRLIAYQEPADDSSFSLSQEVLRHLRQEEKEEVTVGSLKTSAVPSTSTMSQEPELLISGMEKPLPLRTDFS

In the assay the target is hSTING(R232) (Homo sapiens, UniProt Q86WV6, H232R). The assay is described as follows: Luciferase reporter assay in HEK293T-hSTING-Luciferase cells, R232 (wild type) human STING. Format: cell-based. The note with it: 20 hr stimulation, read-out: R232 human activity (EC50 range). An excerpt:
Stable Cell Line Generation • a) Stable STING expressing cells—Stable HEK293T STING-expressing cell lines were generated using plasmids purchased from Invivogen, CA, USA, that contain STING cDNA cloned into the pUNO-1 vector under hEF1-HTLV promoter and containing the Blasticidin selection cassette. The plasmids hSTING(R232), hSTING(H232), hSTING(HAQ) were directly procured from Invivogen while hSTING (AQ) and hSTING (Q) were derived from hSTING(HAQ) and hSTING (R232) plasmids respectively by using a PCR based site directed mutagenesis method. These vectors were individually transfected into HEK293T cells using Lipofectamine (Invitrogen) and transfected cells were selected under Blasticidin selection. These transfected cells were further subjected to clonal selection using the limiting dilution method to obtain clonally pure populations of HEK cells transfected with each of the above mentioned human STING variants. Only those clones were selected in which ligand independent activation of STING was minimal. • b) Stable Luciferase reporter gene expressing cells—Stable HEK293T Luciferase reporter gene expressing cell lines were generated using pCDNA4 plasmids under an IRF-inducible promoter. This promoter is comprised of five tandem interferon-stimulated response elements (ISRE) fused to an ISG54 minimal promoter. This vector was transfected into HEK293T cells using Lipofectamine (Invitrogen) and transfected cells were selected under Zeocin selection. These transfected cells were further subjected to clonal selection using the limiting dilution method to obtain clonally pure populations of HEK cells transfected the Luciferase reporter construct. Only those clones were selected in which ligand independent induction of luciferase was minimal.
5×10^5 clonally selected HEK293T-hSTING-Luciferase cells were seeded in 384-well plates in growth medium and stimulated with novel compounds. After 20 hr of stimulation supernatant were removed and secretary reporter gene activity were measured using the Quanti-Luc detection system (Invivogen) on a Spectramax i3X luminometer.
In the tables below, EC50 value ranges for exemplary compounds are given.
All compounds were first tested in a primary screen to obtain a ‘fold-induction’ over baseline levels of protein activity.
A general note: A reporter such as luciferase makes a cellular process visible.
As for `CN1Cc2ccc(C(=O)NCc3cccc4c3OCO4)cc2N(Cc2c(F)cccc2Cl)C1=O` [Example 43, N-(benzo[d][1,3]dioxol-4-ylmethyl)-1-(2-chloro-6-fluorobenzyl)-3-methyl-2-oxo-1,2,3,4-tetrahydroquinazoline-7-carboxamide], the pEC50 was less than 5.00.

For the compound `CN1Cc2ccc(C(=O)NCc3cccc4c3OCCO4)cc2N(Cc2c(F)cccc2Cl)C1=O` [Example 44, l-(2-chloro-6-fluorobenzyl)-N-((2,3-dihydrobenzo[b][1,4]dioxin-5-yl)methyl)-3-methyl-2-oxo-1,2,3,4-tetrahydroquinazoline-7-carboxamide], the pEC50 is less than 5.00.

Consider `CN1Cc2ccc(C(=O)NCc3c(F)cc(F)cc3F)cc2N(Cc2cn3cc(F)ccc3n2)C1=O` [Example 45, 1-((6-fluoroimidazo[1,2-a]pyridin-2-yl)methyl)-3-methyl-2-oxo-N-(2,4,6-trifluorobenzyl)-l,2,3,4-tetrahydroquinazoline-7-carboxamide], for which the pEC50 is less than 5.00.

Consider `COc1cc(F)ccc1CN1C(=O)N(C)Cc2ccc(C(=O)NCc3c(F)cc(F)cc3F)cc21` [Example 46, l-(4-fluoro-2-methoxybenzyl)-3-methyl-2-oxo-N-(2,4,6-trifluorobenzyl)-1,2,3,4-tetrahydroquinazoline-7-carboxamide], for which the pEC50 was 5.00 to 6.00.

On to `COc1cccc2cc(CNC(=O)c3ccc4c(c3)N(Cc3c(F)cccc3Cl)C(=O)N(C)C4)oc12` [Example 47, 1-(2-chloro-6-fluorobenzyl)-N-((7-methoxybenzofuran-2-yl)methyl)-3-methyl-2-oxo-1,2,3,4-tetrahydroquinazoline-7-carboxamide], for which the pEC50 is less than 5.00.

On to `CN1Cc2ccc(C(=O)NCc3cc4cc([N+](=O)[O-])ccc4o3)cc2N(Cc2c(F)cccc2Cl)C1=O` [Example 48, 1-(2-chloro-6-fluorobenzyl)-3-methyl-N-((5-nitrobenzofuran-2-yl)methyl)-2-oxo-1,2,3,4-tetrahydroquinazoline-7-carboxamide], for which the pEC50 was less than 5.00.

In the case of `CON1Cc2ccc(C(=O)NCc3c(F)cc(F)cc3F)cc2N(Cc2c(F)cccc2Cl)C1=O` [Example 49, 1-(2-chloro-6-fluorobenzyl)-3-methoxy-2-oxo-N-(2,4,6-trifluorobenzyl)-1,2,3,4-tetrahydroquinazoline-7-carboxamide], the pEC50 was 5.00 to 6.00.

On to `CN1Cc2ccc(C(=O)NCc3cccc4occc34)cc2N(Cc2c(F)cccc2Cl)C1=O` [Example 50, N-(benzofuran-4-ylmethyl)-1-(2-chloro-6-fluorobenzyl)-3-methyl-2-oxo-1,2,3,4-tetrahydroquinazoline-7-carboxamide], for which the pEC50 was less than 5.00.

Turning to `CN1Cc2ccc(C(=O)NCc3ccc4cnn(C)c4c3)cc2N(Cc2c(F)cccc2Cl)C1=O` [Example 51, 1-(2-chloro-6-fluorobenzyl)-3-methyl-N-((1-methyl-1H-indazol-6-yl)methyl)-2-oxo-1,2,3,4-tetrahydroquinazoline-7-carboxamide], the pEC50 was less than 5.00.

Take `CN1Cc2ccc(C(=O)NCc3ccc4ccoc4c3)cc2N(Cc2c(F)cccc2Cl)C1=O` [Example 52, N-(benzofuran-6-ylmethyl)-1-(2-chloro-6-fluorobenzyl)-3-methyl-2-oxo-1,2,3,4-tetrahydroquinazoline-7-carboxamide]: the pEC50 is 5.00 to 6.00.

Consider `CN1Cc2ccc(C(=O)NCc3c(F)cc(F)cc3F)cc2N(Cc2ccnn2C)C1=O` [Example 53, 3-methyl-1-((1-methyl-1H-pyrazol-5-yl)methyl)-2-oxo-N-(2,4,6-trifluorobenzyl)-1,2,3,4-tetrahydroquinazoline-7-carboxamide], for which the pEC50 is less than 5.00.

In the case of `CN1Cc2ccc(C(=O)NCc3c(F)cc(F)cc3F)cc2N(Cc2cn(C)nn2)C1=O` [Example 55, 3-methyl-1-((1-methyl-1H-1,2,3-triazol-4-yl)methyl)-2-oxo-N-(2,4,6-trifluorobenzyl)-1,2,3,4-tetrahydroquinazoline-7-carboxamide], the pEC50 was less than 5.00.

With `CN1Cc2ccc(C(=O)NCc3c(F)cc(F)cc3F)cc2N(Cc2c(F)cccc2C(F)(F)F)C1=O` [Example 56, 1-(2-fluoro-6-(trifluoromethyl)benzyl)-3-methyl-2-oxo-N-(2,4,6-trifluorobenzyl)-1,2,3,4-tetrahydroquinazoline-7-carboxamide], the pEC50 is 5.00 to 6.00.

With `Cc1cc(CN2C(=O)N(C)Cc3ccc(C(=O)NCc4c(F)cc(F)cc4F)cc32)nn1C` [Example 57, l-((l,5-dimethyl-1H-pyrazol-3-yl)methyl)-3-methyl-2-oxo-N-(2,4,6-trifluorobenzyl)-1,2,3,4-tetrahydroquinazoline-7-carboxamide], the pEC50 is less than 5.00.

Regarding `CN1Cc2ccc(C(=O)NCc3cc4cc(N)ccc4o3)cc2N(Cc2c(F)cccc2Cl)C1=O` [Example 58, N-((5-aminobenzofuran-2-yl)methyl)-1-(2-chloro-6-fluorobenzyl)-3-methyl-2-oxo-1,2,3,4-tetrahydroquinazoline-7-carboxamide], the pEC50 is less than 5.00.

Take `CN1Cc2ccc(C(=O)NCc3ccc4c(c3)CC(=O)N4)cc2N(Cc2c(F)cccc2Cl)C1=O` [Example 59, 1-(2-chloro-6-fluorobenzyl)-3-methyl-2-oxo-N-((2-oxoindolin-5-yl)methyl)-1,2,3,4-tetrahydroquinazoline-7-carboxamide]: the pEC50 is less than 5.00.

With `COc1cc(F)c(CNC(=O)c2ccc3c(c2)N(Cc2c(F)cccc2Cl)C(=O)N(C)C3)c(F)c1` [Example 60, 1-(2-chloro-6-fluorobenzyl)-N-(2,6-difluoro-4-methoxybenzyl)-3-methyl-2-oxo-1,2,3,4-tetrahydroquinazoline-7-carboxamide], the pEC50 was 5.00 to 6.00.

As to `COc1cc(F)ccc1CNC(=O)c1ccc2c(c1)N(Cc1c(F)cccc1Cl)C(=O)N(C)C2` [Example 61, 1-(2-chloro-6-fluorobenzyl)-N-(4-flnoro-2-methoxybenzyl)-3-methyl-2-oxo-1,2,3,4-tetrahydroquinazoline-7-carboxamide], the pEC50 is less than 5.00.

With `CN1Cc2ccc(C(=O)NCc3c(F)cc(F)cc3F)cc2N(Cc2c(Cl)cccc2Cl)C1=O` [Example 62, l-(2,6-dichlorobenzyl)-3-methyl-2-oxo-N-(2,4,6-trifluorobenzyl)-1,2,3,4-tetrahydroquinazoline-7-carboxamide], the pEC50 was 5.00 to 6.00.

As to `COc1cccc(CN2C(=O)N(C)Cc3ccc(C(=O)NCc4c(F)cc(F)cc4F)cc32)c1F` [Example 63, 1-(2-fluoro-3-methoxybenzyl)-3-methyl-2-oxo-N-(2,4,6-trifluorobenzyl)-1,2,3,4-tetrahydroquinazoline-7-carboxamide], the pEC50 was 5.00 to 6.00.

Turning to `CN1Cc2ccc(C(=O)NCc3c(F)cc(F)cc3F)cc2N(Cc2cc(C3CC3)no2)C1=O` [Example 64, 1-((3-cyclopropylisoxazol-5-yl)methyl)-3-methyl-2-oxo-N-(2,4,6-trifluorobenzyl)-1,2,3,4-tetrahydroquinazoline-7-carboxamide], the pEC50 is less than 5.00.

For `CN1Cc2ccc(C(=O)NCc3c(F)cc(F)cc3F)cc2N(Cc2cn3ccccc3n2)C1=O` [Example 65, 1-(imidazo[1,2-a]pyridin-2-ylmethyl)-3-methyl-2-oxo-N-(2,4,6-trifluorobenzyl)-1,2,3,4-tetrahydroquinazoline-7-carboxamide], the pEC50 was less than 5.00.

Regarding `Cc1ccc(Cl)c(CN2C(=O)N(C)Cc3ccc(C(=O)NCc4c(F)cc(F)cc4F)cc32)c1F` [Example 66, 1-(6-chloro-2-fluoro-3-methylbenzyl)-3-methyl-2-oxo-N-(2,4,6-trifluorobenzyl)-1,2,3,4-tetrahydroquinazoline-7-carboxamide], the pEC50 is greater than 6.00.

For `Cc1nn(C)c(CN2C(=O)N(C)Cc3ccc(C(=O)NCc4c(F)cc(F)cc4F)cc32)c1Br` [Example 67, 1-((4-bromo-1,3-dimethyl-1H-pyrazol-5-yl)methyl)-3-methyl-2-oxo-N-(2,4,6-trifluorobenzyl)-1,2,3,4-tetrahydroquinazoline-7-carboxamide], the pEC50 was 5.00 to 6.00.

With `O=C(NCc1c(F)cc(F)cc1F)c1ccc2c(c1)N(Cc1c(F)cccc1Cl)C(=O)N(OCc1ccccc1)C2` [Example 68, 3-(benzyloxy)-1-(2-chloro-6-fluorobenzyl)-2-oxo-N-(2,4,6-trifluorobenzyl)-1,2,3,4-tetrahydroquinazoline-7-carboxamide], the pEC50 is less than 5.00.

As to `O=C(NCc1c(F)cc(F)cc1F)c1ccc2c(c1)N(Cc1c(F)cccc1Cl)C(=O)N(O)C2` [Example 69, 1-(2-chloro-6-fluorobenzyl)-3-hydroxy-2-oxo-N-(2,4,6-trifluorobenzyl)-1,2,3,4-tetrahydroquinazoline-7-carboxamide], the pEC50 was less than 5.00.

As for `CN1Cc2ccc(C(=O)NCc3c(F)cc(F)cc3F)cc2N(Cc2cc(F)cc(F)c2)S1(=O)=O` [Example 70, 1-(3,5-difluorobenzyl)-3-methyl-N-(2,4,6-trifluorobenzyl)-3,4-dihydro-1H-benzo[c][1,2,6]thiadiazine-7-carboxamide 2,2-dioxide], the pEC50 was 5.00 to 6.00.

Usually pEC50 stands for the negative decadic logarithm of the EC50, by convention in mol/L.
